Assay results as given in PubChem BioAssay AID328 (DTP/NCI, 2004).
Values joined by “and” are separate entries in the source; they are usually repeats but may differ in a detail not shown here. Equal entries are not always repeated. Inconclusive results and toxic doses are left out.

Test system: BDF1 mice, P388 leukemia ip, median survival T/C
Test: NCI In Vivo Anticancer Drug Screen. Data for tumor model P388 Leukemia (intraperitoneal) in B6D2F1 (BDF1) mice
Details: endpoint: median survival time, higher = longer survival
Summary of the method: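 Reported as T/C, where T is the survival measurement in dosed animals and C the same measurement in vehicle controls.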

[1] = dose: 100.0 mg/kg/injection, schedule: Q04DX003 (ip), vehicle: Klucel (hydroxypropylcellulose) (HPC)
[2] = dose: 200.0 mg/kg/injection, schedule: Q04DX003 (ip), vehicle: Klucel (hydroxypropylcellulose) (HPC)
[3] = dose: 400.0 mg/kg/injection, schedule: Q04DX003 (ip), vehicle: Klucel (hydroxypropylcellulose) (HPC)
[4] = dose: 50.0 mg/kg/injection, schedule: Q04DX003 (ip), vehicle: Klucel (hydroxypropylcellulose) (HPC)
[5] = dose: 25.0 mg/kg/injection, schedule: Q01DX009 (ip), vehicle: Klucel (hydroxypropylcellulose) (HPC)
[6] = dose: 50.0 mg/kg/injection, schedule: Q01DX009 (ip), vehicle: Klucel (hydroxypropylcellulose) (HPC)
[7] = dose: 100.0 mg/kg/injection, schedule: Q01DX009 (ip), vehicle: Klucel (hydroxypropylcellulose) (HPC)
[8] = dose: 100.0 mg/kg/injection, schedule: Q04DX003 (ip), vehicle: saline with Tween-80
[9] = dose: 200.0 mg/kg/injection, schedule: Q04DX003 (ip), vehicle: saline with Tween-80
[10] = dose: 400.0 mg/kg/injection, schedule: Q04DX003 (ip), vehicle: saline with Tween-80
[11] = dose: 100.0 mg/kg/injection, schedule: Q01DX001 (ip), vehicle: saline with Tween-80
[12] = dose: 100.0 mg/kg/injection, schedule: Q01DX009 (ip), vehicle: saline with Tween-80
[13] = dose: 200.0 mg/kg/injection, schedule: Q01DX009 (ip), vehicle: saline with Tween-80

For CN(C)C(=S)Sc1ccc([N+](=O)[O-])cc1[N+](=O)[O-], the T/C (dose: 100.0 mg/kg/injection, schedule: Q01DX001 (ip), vehicle: Klucel (hydroxypropylcellulose) (HPC)) was 100 % of control, the T/C [1] was 100 % of control and the T/C (dose: 200.0 mg/kg/injection, schedule: Q01DX001 (ip), vehicle: Klucel (hydroxypropylcellulose) (HPC)) was 100 % of control. For the same compound, the T/C [2] was 104 % of control, the T/C (dose: 400.0 mg/kg/injection, schedule: Q01DX001 (ip), vehicle: Klucel (hydroxypropylcellulose) (HPC)) was 100 % of control and the T/C [3] was 108 % of control.
In the case of C=C(COC(C)(C)C)CN(C)C, the T/C (dose: 25.0 mg/kg/injection, schedule: Q01DX009 (ip), vehicle: acetone) is reported as 92 % of control, the T/C (dose: 50.0 mg/kg/injection, schedule: Q01DX009 (ip), vehicle: acetone) is reported as 100 % of control and the T/C (dose: 100.0 mg/kg/injection, schedule: Q01DX009 (ip), vehicle: acetone) is reported as 96 % of control.
In the case of Nn1nc2ccccc2n1, the T/C (dose: 100.0 mg/kg/injection, schedule: Q04DX003 (ip), vehicle: other) is reported as 100 % of control, the T/C (dose: 200.0 mg/kg/injection, schedule: Q04DX003 (ip), vehicle: other) is reported as 100 % of control and the T/C (dose: 400.0 mg/kg/injection, schedule: Q04DX003 (ip), vehicle: other) is reported as 100 % of control.
CC(C)CC(NC(=O)CF)C(=O)O (configuration not stated) was tested, and the T/C (dose: 2.5 mg/kg/injection, schedule: Q01DX009 (ip), vehicle: saline) was 111 % of control.
For O=S1(=O)N2CN3CN(C2)CN1C3, the T/C (dose: 12.5 mg/kg/injection, schedule: Q04DX003 (ip), vehicle: Klucel (hydroxypropylcellulose) (HPC)) was 121 % of control and the T/C [4] was 105 % of control.
In the case of CC(c1ccccc1)C1N(c2ccccc2)CCN1c1ccccc1 (configuration not stated), the T/C [4] is reported as 107 % of control, the T/C [1] is reported as 96 % of control and the T/C [2] is reported as 107 % of control. For the same compound, the T/C [3] was 111 % of control.
In the case of CCN(CC)c1ccc(C2NC(=O)c3ccccc3N2)cc1 (configuration not stated), the T/C [5] is reported as 110 % of control, the T/C [6] is reported as 120 % of control and the T/C [7] is reported as 95 % of control.
With Cn1nc(NC(=O)C(F)(F)F)c2nccnc21 the T/C [8] was 100 % of control, the T/C [9] was 100 % of control and the T/C [10] was 100 % of control.
With CCN(C)c1nc(N(C)CC)c2nc(N(C)CC)nc(N(C)CC)c2n1 the T/C (dose: 3.13 mg/kg/injection, schedule: Q01DX009 (ip), vehicle: Klucel (hydroxypropylcellulose) (HPC)) was 108 % of control, the T/C (dose: 6.25 mg/kg/injection, schedule: Q01DX009 (ip), vehicle: Klucel (hydroxypropylcellulose) (HPC)) was 99 % of control and the T/C (dose: 12.5 mg/kg/injection, schedule: Q01DX009 (ip), vehicle: Klucel (hydroxypropylcellulose) (HPC)) was 99 % of control. The T/C [5] was 106 % of control.
In the case of O=c1ccc(=O)c2c(=O)c3ccccc3c(=O)c1=2, the T/C [5] is reported as 104 % of control, the T/C [6] is reported as 103 % of control and the T/C [4] is reported as 95 % of control. The T/C [7] was 99 % of control, the T/C [1] was 104 % of control and the T/C [2] was 88 % of control.
For CC(O)c1nc(N)nc(N)c1-c1ccc(Cl)cc1 (configuration not stated), the T/C [11] was 106 % of control and the T/C (dose: 200.0 mg/kg/injection, schedule: Q01DX001 (ip), vehicle: saline with Tween-80) was 100 % of control.
Cc1c(Cl)cccc1NC(=O)c1ccccc1C(=O)O was tested, and the T/C [1] was 91 % of control, the T/C [2] was 95 % of control and the T/C [3] was 100 % of control.
For Cc1cnc2c(N)[nH]nc2n1, the T/C [4] was 86 % of control, the T/C [1] was 109 % of control and the T/C [2] was 100 % of control.
In the case of C1=CC2c3ccccc3C1c1ccccc12, the T/C (dose: 100.0 mg/kg/injection, schedule: Q01DX007 (sc), vehicle: olive oil, sesame oil, peanut oil) is reported as 91 % of control, the T/C (dose: 100.0 mg/kg/injection, schedule: Q04DX003 (sc), vehicle: olive oil, sesame oil, peanut oil) is reported as 100 % of control and the T/C (dose: 200.0 mg/kg/injection, schedule: Q01DX007 (sc), vehicle: olive oil, sesame oil, peanut oil) is reported as 104 % of control. The T/C (dose: 200.0 mg/kg/injection, schedule: Q04DX003 (sc), vehicle: olive oil, sesame oil, peanut oil) was 90 % of control, the T/C (dose: 400.0 mg/kg/injection, schedule: Q01DX007 (sc), vehicle: olive oil, sesame oil, peanut oil) was 95 % of control and the T/C (dose: 400.0 mg/kg/injection, schedule: Q04DX003 (sc), vehicle: olive oil, sesame oil, peanut oil) was 110 % of control.
For CC([OH2+])CNCCN.CC([OH2+])CNCCN.O=[N+]([O-])[O-].[Cu+2] (configuration not stated), the T/C (dose: 12.5 mg/kg/injection, schedule: Q01DX009 (ip), vehicle: saline) was 110 % of control and the T/C (dose: 25.0 mg/kg/injection, schedule: Q01DX009 (ip), vehicle: saline) was 113 % of control.
For CC(C)(C)[Si](OC(=O)N(CCCl)CCCl)(c1ccccc1)c1ccccc1, the T/C (dose: 50.0 mg/kg/injection, schedule: Q01DX001 (ip), vehicle: saline with Tween-80) was 100 % of control and the T/C [11] was 118 % of control and 124 % of control.
With CC1(C)c2c3ccccc3cc3cccc(c23)[S+]1c1ccccc1 (configuration not stated) the T/C (dose: 10.0 mg/kg/injection, schedule: Q01DX009 (ip), vehicle: saline with Tween-80) was 120 % of control.
With Nc1nc2ncc(CNc3ccc(C(=O)NC(CCC(=O)O)C(=O)O)cn3)nc2c(=O)[nH]1 (configuration not stated) the T/C (dose: 37.5 mg/kg/injection, schedule: Q01DX009 (ip), vehicle: saline with Tween-80) was 92 % of control, the T/C (dose: 62.5 mg/kg/injection, schedule: Q01DX009 (ip), vehicle: saline with Tween-80) was 92 % of control and the T/C (dose: 75.0 mg/kg/injection, schedule: Q01DX009 (ip), vehicle: saline with Tween-80) was 107 % of control.
With COC(=O)C(CSCSC)NC(=O)/C=C/c1ccc(C)cc1 (configuration not stated) the T/C (dose: 50.0 mg/kg/injection, schedule: Q01DX009 (ip), vehicle: saline with Tween-80) was 109 % of control, the T/C [12] was 109 % of control and the T/C [8] was 91 % of control. The T/C [13] was 92 % of control, the T/C [9] was 91 % of control and the T/C (dose: 400.0 mg/kg/injection, schedule: Q01DX009 (ip), vehicle: saline with Tween-80) was 100 % of control. The T/C [10] was 88 % of control.
For CC1(C)CC(=O)N/C1=C\C1NC(=O)CC1(C)C (configuration not stated), the T/C [12] was 104 % of control and the T/C [13] was 109 % of control.
In the case of Clc1c(CBr)ccc(CBr)c1Cl, the T/C (dose: 6.25 mg/kg/injection, schedule: Q01DX009 (ip), vehicle: saline with Tween-80) is reported as 104 % of control, the T/C (dose: 6.25 mg/kg/injection, schedule: Q04DX003 (ip), vehicle: saline sonified) is reported as 100 % of control and the T/C (dose: 12.5 mg/kg/injection, schedule: Q01DX009 (ip), vehicle: saline with Tween-80) is reported as 114 % of control. The T/C (dose: 12.5 mg/kg/injection, schedule: Q04DX003 (ip), vehicle: saline sonified) was 90 % of control, the T/C (dose: 25.0 mg/kg/injection, schedule: Q01DX009 (ip), vehicle: saline with Tween-80) was 123 % of control and the T/C (dose: 25.0 mg/kg/injection, schedule: Q04DX003 (ip), vehicle: saline sonified) was 90 % of control.
In the case of O=C(CBr)c1cccnc1, the T/C (dose: 6.25 mg/kg/injection, schedule: Q04DX003 (ip), vehicle: saline) is reported as 104 % of control, the T/C (dose: 12.5 mg/kg/injection, schedule: Q04DX003 (ip), vehicle: saline) is reported as 104 % of control and the T/C (dose: 25.0 mg/kg/injection, schedule: Q04DX003 (ip), vehicle: saline) is reported as 95 % of control.
CCCN=C(N)c1ccc(NC(=O)c2ccc(C(=O)Nc3ccc(C(N)=NCCC)cc3)cc2)cc1 was tested, and the T/C (dose: 0.5 mg/kg/injection, schedule: Q04DX003 (ip), vehicle: saline with Tween-80) was 115 % of control, the T/C (dose: 1.0 mg/kg/injection, schedule: Q04DX003 (ip), vehicle: saline with Tween-80) was 120 % of control and the T/C (dose: 14.0 mg/kg/injection, schedule: Q04DX003 (ip), vehicle: saline with Tween-80) was 163 % of control. The T/C (dose: 21.0 mg/kg/injection, schedule: Q04DX003 (ip), vehicle: saline with Tween-80) was 163 % of control, the T/C (dose: 33.0 mg/kg/injection, schedule: Q04DX003 (ip), vehicle: saline with Tween-80) was 159 % of control and 200 % of control and the T/C (dose: 50.0 mg/kg/injection, schedule: Q04DX003 (ip), vehicle: saline with Tween-80) was 172 % of control and 204 % of control. The T/C (dose: 75.0 mg/kg/injection, schedule: Q04DX003 (ip), vehicle: saline with Tween-80) was 159 % of control, the T/C [8] was 190 % of control and the T/C [9] was 118 % of control.
For O=C1NN(c2ccccc2)C(=O)/C1=C\c1ccccc1O, the T/C (dose: 350.0 mg/kg/injection, schedule: Q01DX009 (ip), vehicle: saline with Tween-80) was 97 % of control.
OC12C3CCCC1CCCC2CCC3 (configuration not stated) was tested, and the T/C [1] was 100 % of control and 108 % of control, the T/C (dose: 100.0 mg/kg/injection, schedule: Q04DX003 (ip), vehicle: saline sonified) was 108 % of control and the T/C [2] was 91 % of control and 100 % of control. For the same compound, the T/C (dose: 200.0 mg/kg/injection, schedule: Q04DX003 (ip), vehicle: saline sonified) was 90 % of control and 108 % of control, the T/C [3] was 100 % of control and the T/C (dose: 400.0 mg/kg/injection, schedule: Q04DX003 (ip), vehicle: saline sonified) was 109 % of control and 108 % of control.
In the case of CCCCCC[N+]1(C)CC2C3C=CC(C3)C2C1 (configuration not stated), the T/C (dose: 75.0 mg/kg/injection, schedule: Q01DX009 (ip), vehicle: saline) is reported as 90 % of control.
